Assay results from paper PMC7115586 (European Journal of Medicinal Chemistry, 2013).

Experiments:
[1] = Solubility in methanol or water; assay type: physicochemical; details: insufficient to measure the 13C NMR spectrum
[2] = tested on: a wide variety of DNA and RNA viruses; assay: All biological tests; assay type: cell-based; details: antiviral and cytostatic tests
[3] = tested on: feline herpes virus (FHV); assay type: cell-based; details: CRFK, read-out: EC50 against feline herpes virus

Question: For “4-(4-{[6-Aminopurin-9-yl]methyl}-1H-1,2,3-triazol-1-yl)butylphosphonic acid [Compound 32b]”, which “solubility in methanol or water” value [1] is on record?
Answer: insufficient

Question: For “3-(4-{[3-Benzoyl-2,4-dioxopyrimidin-1-yl]methyl}-1H-1,2,3-triazol-1-yl)propylphosphonic acid [Compound 31e]”, which “activity in all biological tests” value [2] is on record?
Answer: inactive

Question: With `Cn1c(=O)c2c(ncn2Cc2cn(CC(O)P(=O)(O)O)nn2)n(C)c1=O` (stereo not shown) [Compound 33i, 3-{4-[(1,3-Dimethyl-2,6-dioxopurin-7-yl)methyl]-1H-1,2,3-triazol-1-yl}-1-hydroxyethyphosphonic acid] as the compound, how does the “solubility in methanol or water” value [1] read?
Answer: insufficient

Question: Which “activity in all biological tests” value [2] does the source give for `Cc1cc2ncn(Cc3cn(CCCP(=O)(O)O)nn3)c2cc1C` [Compound 31j, 3-{4-[(5,6-Dimethyl-benzimidazol-1-yl)methyl]-1H-1,2,3-triazol-1-yl}propylphosphonic acid] here?
Answer: inactive

Question: For `Nc1ncnc2c1ncn2Cc1cn(CCCCP(=O)(O)O)nn1` [Compound 32a, 4-(4-{[6-Aminopurin-9-yl]methyl}-1H-1,2,3-triazol-1-yl)butylphosphonic acid], which “solubility in methanol or water” value [1] is on record?
Answer: insufficient

Question: For `CCOP(=O)(CCCn1cc(Cn2ccc(=O)n(C(=O)c3ccccc3)c2=O)nn1)OCC` [Compound 22m, Diethyl 3-(4-{[3-benzoyl-2,4-dioxopyrimidin-1-yl]methyl}-1H-1,2,3-triazol-1-yl)propylphosphonate], which EC50 [3] is on record?
Answer: > 200 µM

Question: With `Cn1c(=O)c2c(nc(Cl)n2Cc2cn(CCCP(=O)(O)O)nn2)n(C)c1=O` [Compound 31g, 3-{4-[(8-Chloro-1,3-dimethyl-2,6-dioxopurin-7-yl)methyl]-1H-1,2,3-triazol-1-yl}propylphosphonic acid] as the compound, how does the “solubility in methanol or water” value [1] read?
Answer: insufficient
